# How the values were obtained:
# Format in all cases: binding
# [1] = target: T1, MLNR (Homo sapiens, UniProt O43193); test: NanoBRET screen HiBiT-MLNR in HEK293
# T1 construct: purchased Promega (in-house HiBiT-GPCR construct library, NanoBRET)
# Experimental: (§1) Each tracer candidate was screened across the entire library of HiBiT-GPCR constructs using NanoBRET as the detection modality. As depicted in Figure 4A, the specificity of interactions was evaluated through decrease in BRET due to competitive displacement of a bound tracer by excess parental compound. Each tracer was analyzed for binding to each HiBiT-GPCR fusion in the absence and in the presence of competing parental compound. Briefly, HEK293 cells were transfected with HiBiT-GPCR constructs diluted into promoterless DNA to reduce expression and maximize translocation to the cell surface. Each tracer candidate was then screened at concentrations of 1 μM and 0.1 μM across cells expressing these fusions. Cells were treated for 1.5 h with tracer either alone or in the presence of 20 μM competing parental compound (i.e., control). BRET was measured upon addition of purified LgBiT and subsequent complementation with HiBiT genetically fused to a GPCR. The specificity of interactions was assessed through a decrease in BRET signal due to competitive displacement of the bound tracer. To further gauge the robustness of these interactions, the fold response over the control (i.e., BRETtracer/BRETcontrol) was calculated. We chose a 1.5-fold response, which translates to ≥7-fold signal over noise as the minimal threshold required to score an interaction as positive. […]. Below we highlight the screening results obtained for our exemplary fluorescent tracers based on Clozapine, Amitriptyline and AZD1283.
# (§2) HiBiT-GPCR DNA constructs were diluted in 10 mM Tris pH 8 to a final concentration of 0.01 μg/μL, arrayed in 96-well plates and stored at −20 °C. For transfection, HEK293 cells were suspended in Opti-MEM (without phenol red) supplemented with 2% fetal bovine serum (Seradigm) and 100 units/mL penicillin–streptomycin (Gibco) at a final concentration of 220,000 cells/mL and dispensed into white 96-well plates at 90 μL/well. Subsequent transfections and screens were carried using an Agilent Bravo Automated Liquid Handling Platform. First, the 96-well HiBiT DNA arrays were diluted 25-fold in Opti-MEM (without serum or phenol red) to a final concentration of 0.0004 μg/μL and 20 μL of the diluted DNAs were transferred into new 96-well plates. Next, promoterless carrier DNA (1 μg/μL) was diluted 25-fold (0.04 μg/μL) and then dispensed into the diluted arrays at 20 μL/well. Following brief mixing, Viafect transfection reagent (Promega) diluted 16-fold into Opti-MEM was dispensed into the plates at 40 μL/well. After mixing by pipetting, plates were incubated for 10 min on the pipetting station deck. The DNA-transfection reagent complexes were then added to plates containing cells. To facilitate the screen, 10 μL of DNA-transfection reagent complexes were added in duplicates to the top 4 and bottom 4 rows, resulting in two identical 48-well arrays per plate. Plates with transfected cells were incubated for 18–20 h at 37 °C/5% CO2. A screen of each tracer across the entire library using two different concentrations requires duplicate plates of transfected cells. Depending on the number of tracers being screened, transfections can be scaled up using the same ratios. The next day, for each tracer, four 20× screening solutions in tracer dilution buffer (Promega) were prepared: two duplicates at final concentration of 20 μM and two duplicates at a final concentration of 2 μM. A competing unmodified compound was added to one of each duplicate at a final concentration of 400 μM. The four resulting solutions were diluted 4-fold in Opti-MEM without serum or phenol red to generate 5× solutions (5 µM and 0.5 µM tracer +/− 100 μM competing compound). To screen the library, a BioTek MultiFlo FX liquid dispenser was used to dispense 22.5 µL of tracer solution to the top 4 rows and 22.5 µL tracer + competing compound solution to the 4 bottom rows. Plates were briefly mixed on an orbital shaker and incubated for 1.5 h at room temperature. […]
# [2] = target: T2, VIPR2 (Homo sapiens, UniProt P41587); test: NanoBRET screen HiBiT-VIPR2 in HEK293
# T2 construct: purchased Promega (in-house HiBiT-GPCR construct library, NanoBRET)
# T2 sequence (P41587 24-438): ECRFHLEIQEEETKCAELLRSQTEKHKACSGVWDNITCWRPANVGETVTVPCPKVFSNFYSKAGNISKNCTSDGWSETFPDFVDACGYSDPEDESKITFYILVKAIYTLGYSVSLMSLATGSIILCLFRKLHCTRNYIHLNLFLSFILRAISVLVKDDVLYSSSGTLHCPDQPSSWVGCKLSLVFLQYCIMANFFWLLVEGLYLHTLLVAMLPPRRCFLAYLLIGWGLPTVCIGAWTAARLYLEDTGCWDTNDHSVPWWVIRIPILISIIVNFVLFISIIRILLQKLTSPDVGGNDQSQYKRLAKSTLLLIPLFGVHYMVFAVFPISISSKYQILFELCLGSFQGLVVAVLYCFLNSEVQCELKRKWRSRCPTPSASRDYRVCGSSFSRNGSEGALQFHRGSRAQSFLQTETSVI
# Experimental: as §1, §2
# [3] = target: T3, PTGFR (Homo sapiens, UniProt P43088); test: NanoBRET screen HiBiT-PTGFR in HEK293
# T3 construct: purchased Promega (in-house HiBiT-GPCR construct library, NanoBRET)
# Experimental: as §1, §2
# T3 sequence (P43088 whole entry): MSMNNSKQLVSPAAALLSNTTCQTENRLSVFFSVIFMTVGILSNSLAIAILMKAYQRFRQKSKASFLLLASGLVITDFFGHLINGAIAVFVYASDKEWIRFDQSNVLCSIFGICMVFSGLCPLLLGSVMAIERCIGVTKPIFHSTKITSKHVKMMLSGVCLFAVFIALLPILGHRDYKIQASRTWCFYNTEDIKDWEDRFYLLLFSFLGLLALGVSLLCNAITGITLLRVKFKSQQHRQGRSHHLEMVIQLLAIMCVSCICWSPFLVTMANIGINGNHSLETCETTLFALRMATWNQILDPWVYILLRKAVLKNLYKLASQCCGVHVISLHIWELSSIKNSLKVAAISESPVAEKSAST
# T1 sequence (O43193 whole entry): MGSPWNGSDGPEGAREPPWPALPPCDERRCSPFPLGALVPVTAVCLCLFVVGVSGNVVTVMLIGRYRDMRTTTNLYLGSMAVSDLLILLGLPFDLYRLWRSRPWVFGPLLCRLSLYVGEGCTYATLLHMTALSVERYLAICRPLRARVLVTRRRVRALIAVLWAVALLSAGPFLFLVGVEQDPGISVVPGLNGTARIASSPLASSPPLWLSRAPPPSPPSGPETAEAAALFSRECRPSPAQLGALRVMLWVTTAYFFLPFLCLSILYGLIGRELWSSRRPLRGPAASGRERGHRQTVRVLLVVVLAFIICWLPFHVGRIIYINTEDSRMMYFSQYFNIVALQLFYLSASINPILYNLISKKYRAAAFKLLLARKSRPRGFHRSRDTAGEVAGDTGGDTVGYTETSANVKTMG
SMILES,"NanoBRET Fold Response ([1]; MLNR, tracer 0.1μM)","NanoBRET Fold Response ([1]; MLNR, tracer 1μM)","NanoBRET Fold Response ([2]; VIPR2, tracer 0.1μM)","NanoBRET Fold Response ([2]; VIPR2, tracer 1μM)","NanoBRET Fold Response ([3]; PTGFR, tracer 0.1μM)","NanoBRET Fold Response ([3]; PTGFR, tracer 1μM)",also measured
O=C(CCOCCOCCOCCOCCNC(=O)CCc1ccc2n1[B-](F)(F)[N+]1=C(c3ccc[nH]3)C=CC1=C2)NCCCN1CCN(C2=Nc3ccccc3Oc3ccc(Cl)cc32)CC1 [Loxapine-a-2-NB590],1.20,1.16,1.15,0.83,1.03,1.02,
CCCn1c(=O)c2[nH]c(-c3ccc(OCC(=O)NCCNC(=O)CCOCCNC(=O)c4ccc(CNC(=O)CCc5ccc6n5[B-](F)(F)[N+]5=C(c7ccc[nH]7)C=CC5=C6)cc4)cc3)nc2n(CCC)c1=O [XAC-3-NB590],0.99,0.91,0.72,0.91,1.02,0.98,
CN(C)CCC=C1c2ccccc2CCc2ccc(C(=O)NCCNC(=O)CCOCCOCCOCCOCCNC(=O)CCc3ccc4n3[B-](F)(F)[N+]3=C(c5ccc[nH]5)C=CC3=C4)cc21 [Amitriptyline-a-2-NB590],,,,,,,NanoBRET Fold Response ([1]; tracer at 0.1μM): 1.05; NanoBRET Fold Response ([1]; tracer at 1μM): 1.05; NanoBRET Fold Response ([2]; tracer at 0.1μM): 0.95; NanoBRET Fold Response ([2]; tracer at 1μM): 1.02
COc1ccccc1N1CCN(CCCCN2C(=O)c3ccc(CNC(=O)CCOCCOCCOCCOCCNC(=O)CCc4ccc5n4[B-](F)(F)[N+]4=C(c6ccc[nH]6)C=CC4=C5)cc3C2=O)CC1 [NAN-190-2-NB590],0.67,,1.05,1.03,1.00,1.00,
O=C(CCc1ccc2n1[B-](F)(F)[N+]1=C(c3ccc[nH]3)C=CC1=C2)NCc1ccc(C(=O)NCCOCCOCCNCC(O)COc2cccc3ccccc23)cc1 (stereo not shown) [Propranolol-3-NB590],,,,,,,"NanoBRET Fold Response ([1]; MLNR, 0.1μM): 1.01; NanoBRET Fold Response ([1]; MLNR, 1μM): 1.02; NanoBRET Fold Response ([2]; VIPR2, 0.1μM): 0.95; NanoBRET Fold Response ([2]; VIPR2, 1μM): 1.03; NanoBRET Fold Response ([3]; PTGFR, 0.1μM): 0.97; NanoBRET Fold Response ([3]; PTGFR, 1μM): 1.00"
COc1ccccc1N1CCN(CCCCN2C(=O)c3ccc(CNC(=O)CCOCCNC(=O)c4ccc(CNC(=O)CCc5ccc6n5[B-](F)(F)[N+]5=C(c7ccc[nH]7)C=CC5=C6)cc4)cc3C2=O)CC1 [NAN-190-3-NB590],1.32,0.66,0.98,0.87,0.96,0.90,
O=C(CCc1ccc2n1[B-](F)(F)[N+]1=C(c3ccc[nH]3)C=CC1=C2)NCc1ccc(C(=O)NCCOCCC(=O)N[C@@H]2CC[C@@]3(O)[C@H]4Cc5ccc(O)c6c5[C@@]3(CCN4CC3CC3)[C@H]2O6)cc1 [Naltrexone-3-NB590],1.44,0.69,1.17,1.05,1.10,0.91,
CCOC(=O)c1cc(C#N)c(N2CCC(C(=O)NS(=O)(=O)Cc3ccccc3/C=C/C(=O)NCCNC(=O)CCc3ccc4n3[B-](F)(F)[N+]3=C(c5ccc[nH]5)C=CC3=C4)CC2)nc1C [AZD1283-1-NB590],,,,,,,"NanoBRET Fold Response ([1]; MLNR, 0.1μM): 1.06; NanoBRET Fold Response ([1]; MLNR, 1μM): 1.01; NanoBRET Fold Response ([2]; VIPR2, 0.1μM): 1.19; NanoBRET Fold Response ([2]; VIPR2, 1μM): 1.15; NanoBRET Fold Response ([3]; PTGFR, 0.1μM): 1.02; NanoBRET Fold Response ([3]; PTGFR, 1μM): 1.02"
COc1ccc2[nH]c(-c3ccc(CNC(=O)CCOCCOCCOCCOCCNC(=O)CCc4ccc5n4[B-](F)(F)[N+]4=C(c6ccc[nH]6)C=CC4=C5)cc3)c(CCNC(C)=O)c2n1 [AzomelatoninICO9-2-NB590],,,,,,,NanoBRET Fold Response ([1]; 0.1μM tracer): 0.60; NanoBRET Fold Response ([1]; 1μM tracer): 0.87; NanoBRET Fold Response ([2]; 0.1μM tracer): 0.99; NanoBRET Fold Response ([2]; 1μM tracer): 1.12; NanoBRET Fold Response ([3]; 0.1μM tracer): 0.97; NanoBRET Fold Response ([3]; 1μM tracer): 0.91
CC(C)N(CC[C@H](c1ccccc1)c1cc(CCNC(=O)CCOCCOCCOCCOCCNC(=O)CCc2ccc3n2[B-](F)(F)[N+]2=C(c4ccc[nH]4)C=CC2=C3)ccc1O)C(C)C [Tolterodine-2-NB590],0.87,1.15,0.98,1.04,0.84,0.94,
CN1CCN(C2=Nc3cc(Cl)ccc3N(CC(=O)NCCOCCOCCOCCOCCNC(=O)CCc3ccc4n3[B-](F)(F)[N+]3=C(c5ccc[nH]5)C=CC3=C4)c3ccccc32)CC1 [Clozapine-c-2-NB590],,,,,,,"NanoBRET Fold Response ([1]; MLNR, 0.1μM tracer): 0.66; NanoBRET Fold Response ([1]; MLNR, 1μM tracer): 1.14; NanoBRET Fold Response ([2]; VIPR2, 0.1μM tracer): 0.97; NanoBRET Fold Response ([2]; VIPR2, 1μM tracer): 0.86; NanoBRET Fold Response ([3]; PTGFR, 0.1μM tracer): 1.00; NanoBRET Fold Response ([3]; PTGFR, 1μM tracer): 1.10"
N#CN=C(NCCCOc1cccc(CN2CCCCC2)c1)NCCNC(=O)CCOCCOCCOCCOCCNC(=O)CCc1ccc2n1[B-](F)(F)[N+]1=C(c3ccc[nH]3)C=CC1=C2 [Aminopotentidine-2-NB590],0.97,1.00,1.01,1.08,0.99,0.93,
COc1ccc2c(n1)c(CCNC(C)=O)cn2CCNC(=O)CCc1ccc2n1[B-](F)(F)[N+]1=C(c3ccc[nH]3)C=CC1=C2 [Azamelatonin-1-NB590],,,,,,,NanoBRET Fold Response ([1]; 0.1μM tracer): 1.00; NanoBRET Fold Response ([1]; 1μM tracer): 0.92; NanoBRET Fold Response ([2]; 0.1μM tracer): 0.99; NanoBRET Fold Response ([2]; 1μM tracer): 0.99; NanoBRET Fold Response ([3]; 0.1μM tracer): 1.13; NanoBRET Fold Response ([3]; 1μM tracer): 0.90
CN(CCC=C1c2ccccc2CCc2ccccc21)C(=O)CCOCCOCCOCCOCCNC(=O)CCc1ccc2n1[B-](F)(F)[N+]1=C(c3ccc[nH]3)C=CC1=C2 [Amitriptyline-e-2-NB590],,,,,,,NanoBRET Fold Response ([2]; tracer at 1μM): 1.06

# Reference: publication PMC8151276, “An Integrated Approach toward NanoBRET Tracers for Analysis of GPCR Ligand Engagement” (Molecules, 2021)
